# Source: patent US20250340537A1, “PHARMACEUTICALLY ACTIVE COMPOUNDS, COMPOSITIONS, AND METHODS FOR MODULATING PENDRIN” (ARBORMED Co., Ltd., priority 2022, published 2025)
# Biological target: T1, H723R-pendrin (Homo sapiens, UniProt O43511, H723R)
# T1 construct: expressed in transfected cells; host or cells: PANC-1
# T1 sequence (O43511 1-780 H723R): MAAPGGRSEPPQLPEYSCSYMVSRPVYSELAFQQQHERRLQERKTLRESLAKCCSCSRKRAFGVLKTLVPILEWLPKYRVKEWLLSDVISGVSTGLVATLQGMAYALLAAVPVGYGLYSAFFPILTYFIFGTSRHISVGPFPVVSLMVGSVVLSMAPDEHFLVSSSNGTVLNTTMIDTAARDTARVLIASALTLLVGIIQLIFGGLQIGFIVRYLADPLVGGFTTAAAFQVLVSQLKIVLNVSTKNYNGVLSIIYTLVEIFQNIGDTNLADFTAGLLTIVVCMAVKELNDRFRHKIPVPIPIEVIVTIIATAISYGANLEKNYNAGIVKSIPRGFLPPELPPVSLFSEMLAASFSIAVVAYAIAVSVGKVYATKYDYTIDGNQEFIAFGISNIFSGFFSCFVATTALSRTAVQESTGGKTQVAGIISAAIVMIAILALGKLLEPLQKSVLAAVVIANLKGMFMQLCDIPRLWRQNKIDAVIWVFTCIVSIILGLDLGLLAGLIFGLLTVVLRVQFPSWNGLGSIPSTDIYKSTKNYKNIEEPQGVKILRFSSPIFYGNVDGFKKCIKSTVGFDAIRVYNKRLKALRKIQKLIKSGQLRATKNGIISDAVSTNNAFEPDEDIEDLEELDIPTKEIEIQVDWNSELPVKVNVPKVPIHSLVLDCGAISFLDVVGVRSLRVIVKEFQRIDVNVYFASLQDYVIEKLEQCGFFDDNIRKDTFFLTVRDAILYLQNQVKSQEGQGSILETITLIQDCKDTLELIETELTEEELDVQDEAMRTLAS
# Assay: YFP fluorescence quenching assay (Cl−/I− exchange activity of pendrin)
# Format: cell-based
# Conditions: PANC-1 cells stably expressing human H723R-pendrin and YFP-F46L/H148Q/I152L; compound incubation 20-24 hours; iodide influx
# Description: Halide sensor YFP F46L/H148Q/I152L is quenched by halide ion like Iodide. When such YFP is expressed in a cell, it expresses in the cytoplasm.
# To measure H723R-PDS activity, PANC-1 cells were stably transfected with halide sensors YFP-F46L/H148Q/I152L and H723R-PDS which has problems with membrane trafficking due to misfolding.
# If the cell-treated drug is a corrector for H723R-PDS, H723R-PDS will translocate normally to the plasma membrane.
# At this time, when treated with a high-concentration iodide solution outside the cell, iodide enters the cell due to the Cl−/I− exchange activity of pendrin, and the fluorescence of the halide sensor YFP decreases.
# PANC-1 cells were cultured in Dulbecco's Modified Eagle's Medium with 10% fetal bovine serum, 2 mM glutamine, 100 units/ml penicillin and 100 µg/ml streptomycin. For high-throughput screening, PANC-1 cells were stably transfected with human H723R-pendrin and halide sensor YFP-F46L/H148Q/I152L.
# PANC-1 cells expressing human H723R-pendrin and YFP-F46L/H148Q/I152L were plated in 96-well microplates at a density of 2×10^4 cells per well and grown for 20-24 hours at 37° C. (90% humidity 5% CO2). Then these cells were treated with 50 μl growth medium containing test compounds and incubated for 20-24 hours. For YFP quenching assay, each well of the 96-well plate was washed 2 times with 200 μl of PBS, and it was filled with 50 μl of HEPES-buffered solution (140 mM NaCl, 5 mM KCl, 1 mM MgCl2, 1 mM CaCl2, 10 mM D-glucose, 10 mM HEPES; pH 7.4 with NaOH). After 10 minutes of incubation at 37° C., the 96-well plate was moved on the FLUOstar Omega Microplate Reader (BMG Labtech, Ortenberg, Germany) for a fluorescence assay. Each well was assayed individually for H723R-pendrin mediated I^− influx by recording fluorescence (495±15 nm excitation, 520±20 nm emission) every 400 ms for 1 second (baseline). Then, 50 μL of NaI-substituted HEPES-buffered solution (NaI replacing NaCl) was added using a liquid injector at 1 second and YFP fluorescence was recorded every 400 ms for 10 seconds. The initial iodide influx rate was determined from the initial slope of fluorescence by nonlinear regression, after the infusion of iodide.
# It is indicated as EC50 with the following key: A=EC50 less than 5 uM; B=EC50 greater than 5 uM, but less than 10 uM; C=EC50 greater than 10 uM.
row,EC50 [µM],SMILES
1,> 10,COc1ccc(-c2cncc(C3=C(N)N(CC4CCCCC4)CC3=O)n2)cc1OC [Compound 48]
2,> 10,NC1=C(c2nccc(-c3ccc(O)c(O)c3)n2)C(=O)CN1c1ccccc1F [Compound 74]
3,< 5,NC1=C(c2ccnc(-c3ccc(O)c(O)c3)n2)C(=O)CN1c1ccccc1F [Compound 57]
4,> 10,CC(C)CN1CC(=O)C(c2cncc(-c3ccc4c(c3)n(C)c(=O)n4C)n2)=C1N [Compound 27]
5,> 10,COc1ccc(-c2cccc(C3=C(N)N(c4ccccc4F)CC3=O)n2)cc1OC [Compound 3]
6,5 to 10,COc1ccc(-c2cncc(C3=C(N)N(CC4CCC4)CC3=O)n2)cc1OC [Compound 66]
7,> 10,NC1=C(c2cncc(-c3ccc(O)c(OC4CCC4)c3)n2)C(=O)CN1CC1CCCC1 [Compound 67]
8,> 10,NC1=C(c2cnc(-c3ccc(O)c(O)c3)cn2)C(=O)CN1c1ccccc1Cl [Compound 35]
9,> 10,COc1ccc(-c2ccnc(C3=C(N)N(CCC(F)(F)F)CC3=O)n2)cc1OC [Compound 96]
10,> 10,COc1ccc(-c2cncc(C3=C(N)N(CC4CCCC4)CC3=O)c2)cc1OC [Compound 50]
11,> 10,NC1=C(c2cncc(-c3ccc(O)c(O)c3)n2)C(=O)CN1CC1CCOC1 (centres unmarked) [Compound 41]
12,> 10,NC1=C(c2ccnc(-c3ccc(O)c(O)c3)c2)C(=O)CN1CC1CCCC1 [Compound 109]
13,> 10,COc1ccc(-c2cccc(C3=C(N)N(CCC(F)(F)F)CC3=O)n2)cc1OC [Compound 93]
14,> 10,COc1cc(OC)cc(-c2cncc(C3=C(N)N(c4ccccc4Cl)CC3=O)n2)c1 [Compound 22]
15,> 10,NC1=C(c2ccnc(-c3ccc(O)c(O)c3)c2)C(=O)CN1c1ccccc1F [Compound 101]
16,> 10,COc1ccc(-c2cncc(C3=C(N)N(CC4CCNC4)CC3=O)c2)cc1OC (centres unmarked) [Compound 55]
17,> 10,COc1ccc(-c2cccc(C3=C(N)N(c4ccccc4Cl)CC3=O)n2)cc1OC [Compound 75]
18,> 10,COc1ccc(-c2cncc(C3=C(N)N(CC4CCOC4)CC3=O)n2)cc1OC (centres unmarked) [Compound 36]
19,> 10,NC1=C(c2cc(-c3ccc(O)c(O)c3)ncn2)C(=O)CN1c1ccccc1Cl [Compound 72]
20,5 to 10,COc1ccc(-c2cncc(C3=C(N)N(CC4CCCC4)CC3=O)n2)cc1OC [Compound 15]
21,> 10,COc1ccc(-c2ccnc(C3=C(N)N(c4ccccc4F)CC3=O)n2)cc1OC [Compound 1]
22,5 to 10,COc1ccc(-c2cncc(C3=C(N)N(c4ccccc4Cl)CC3=O)n2)cc1OC [Compound 6]
23,> 10,COc1cc(-c2cncc(C3=C(N)N(c4ccccc4Cl)CC3=O)n2)cnc1OC [Compound 21]
24,> 10,NC1=C(c2cncc(-c3ccc(O)cc3O)n2)C(=O)CN1c1ccccc1Cl [Compound 30]
25,> 10,COc1cc(-c2cncc(C3=C(N)N(CC4CCOC4)CC3=O)c2)ccc1O (centres unmarked) [Compound 91]

# The remaining lines, values behind:
row,SMILES,EC50 [µM]
1,NC1=C(c2nccc(-c3ccc(O)c(O)c3)n2)C(=O)CN1CC1CCCC1 [Compound 65],5 to 10
2,COC(CN1CCN(c2cncc(C3=C(N)N(c4ccccc4Cl)CC3=O)n2)CC1)OC [Compound 25],> 10
3,NC1=C(c2cccc(-c3ccc(O)c(O)c3)n2)C(=O)CN1CC1CCCC1 [Compound 81],< 5
4,COc1ccc(-c2cccc(C3=C(N)N(CC4CCCC4)CC3=O)n2)cc1OC [Compound 80],> 10
5,NC1=C(c2cncc(-c3ccc(O)c(O)c3)n2)C(=O)CN1CC1CC(F)(F)C1 [Compound 104],5 to 10
6,NC1=C(c2cncc(-c3cnc(O)c(O)c3)n2)C(=O)CN1c1ccccc1Cl [Compound 38],> 10
7,NC1=C(c2cncc(-c3ccc(O)c(O)c3)c2)C(=O)CN1CCC(F)(F)F [Compound 95],> 10
8,NC1=C(c2cncc(-c3ccc(O)c(O)c3)n2)C(=O)CN1CCC(F)(F)F [Compound 19],> 10
9,COc1cc(-c2ccnc(C3=C(N)N(CC4CCCC4)CC3=O)n2)ccc1O [Compound 110],< 5
10,COc1ccc(-c2cncc(C3=C(N)N(c4ccccc4OC)CC3=O)n2)cc1OC [Compound 37],> 10
11,COc1ccc(-c2cncc(C3=C(N)N(CCC(F)(F)F)CC3=O)c2)cc1OC [Compound 88],> 10
12,NC1=C(c2cncc(-c3ccc4ocnc4c3)n2)C(=O)CN1c1ccccc1Cl [Compound 11],> 10
13,NC1=C(c2nccc(-c3ccc(O)c(O)c3)n2)C(=O)CN1CCC(F)(F)F [Compound 97],> 10
14,NC1=C(c2cncc(-c3ccc4nc[nH]c4c3)n2)C(=O)CN1c1ccccc1Cl [Compound 34],> 10
15,COc1ccc(-c2cncc(C3=C(N)N(c4ccccc4Cl)CC3=O)n2)c(OC)c1 [Compound 20],5 to 10
16,CNc1ccc(-c2cncc(C3=C(N)N(c4ccccc4Cl)CC3=O)n2)cc1NC [Compound 23],> 10
17,NC1=C(c2cccc(-c3ccc(O)c(O)c3)n2)C(=O)CN1CC1CCNC1 (centres unmarked) [Compound 86],> 10
18,NC1=C(c2nccc(-c3ccc(O)c(O)c3)n2)C(=O)CN1CC1CCNC1 (centres unmarked) [Compound 83],> 10
19,NC1=C(c2cncc(-c3ccc(O)c(OC4CC(N)C4)c3)n2)C(=O)CN1CC1CCCC1 (centres unmarked) [Compound 113],> 10
20,NC1=C(c2cncc(-c3ccc(O)c(O)c3)c2)C(=O)CN1CC1CCCC1 [Compound 54],> 10
21,NC1=C(c2ccnc(-c3ccc(O)c(O)c3)n2)C(=O)CN1c1ccccc1Cl [Compound 114],< 5
22,COc1ccc(-c2cncc(C3=C(N)N(c4cccc(Cl)c4Cl)CC3=O)n2)cc1OC [Compound 63],5 to 10
